This note sets out measurements from ChEMBL document CHEMBL1136380, “Synthesis of beta-lactamase activated nitric oxide donors” (Bioorg Med Chem Lett, 2003).

Experiment [1] in a line: NO releasing ability of the measured through the formation of nitrite (NO2) in solution, following incubation in the absence of beta-lactamase (Compound+penicillinase).
Experiment [2] is described as follows: NO releasing ability of the measured through the formation of nitrite (NO2) in solution, following incubation in the presence of beta-lactamase.
Experiment [3] can be described thus: The NO releasing ability measured through the formation of nitrite (NO2) in solution, following incubation of the compound.

As for `O=C(Cc1cccs1)N[C@@H]1C(=O)N2C(C(=O)O)=C(COC(=O)/N=c3/c[n+](N4CCOCC4)[n-]o3)CS[C@H]12`, the Concentration in experiment [1] is 10.2 µM; in experiment [2], 2.2 µM.

Consider `[NH-]c1c[n+](N2CCOCC2)no1`, for which the Concentration in experiment [3] is 15.5 µM.
